Assay results reported in patent US11724997B2, “Compounds and compositions for treating conditions associated with APJ receptor activity” (Annapurna Bio, Inc., priority 2018, dated 2023).

Target: T1, APJ Receptor (Homo sapiens, UniProt P35414)
T1 sequence (P35414 1-380): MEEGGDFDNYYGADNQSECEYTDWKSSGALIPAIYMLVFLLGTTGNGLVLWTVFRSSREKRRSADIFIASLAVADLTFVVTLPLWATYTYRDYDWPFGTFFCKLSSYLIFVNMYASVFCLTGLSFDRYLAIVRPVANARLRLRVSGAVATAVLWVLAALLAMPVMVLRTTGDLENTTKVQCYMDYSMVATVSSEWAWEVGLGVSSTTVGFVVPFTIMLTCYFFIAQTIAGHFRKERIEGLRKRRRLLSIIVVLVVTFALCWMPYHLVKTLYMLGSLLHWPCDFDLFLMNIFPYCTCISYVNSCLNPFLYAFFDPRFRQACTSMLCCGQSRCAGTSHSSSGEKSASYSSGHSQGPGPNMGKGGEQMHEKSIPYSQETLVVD
Assay: APJ cAMP assay: inhibition of forskolin-stimulated cAMP, enzyme fragment complementation, in CHO-K1 cells stably expressing the APJ Receptor
Assay type: cell-based
Details: CHO-K1 cell line (DiscoverX) stably expressing APJ Receptor; EC80 forskolin; 30 minutes at 37° C.; read-out: APJ cAMP EC50 Potency range
Description: Activation of APJ receptor is known to inhibit forskolin-stimulated cyclic AMP (cAMP) production in cells in a pertussis toxin-sensitive manner which indicates primary coupling to the GαI subunit of the G protein heterotrimeric complex. In addition to signaling through G protein and inhibition of cAMP, APJ receptor activation also results in β-arrestin recruitment, receptor internalization and activation of extracellular-regulated kinases (ERKs).
In order to optimize functional activity directed toward Gi coupling we utilized a CHO-K1 cell line developed by DiscoverX stably expressing the APJ Receptor. Cells expressing APJR receptor were plated in a 384-well microtiter plates and incubated overnight at 37° C. with 5% CO2 to allow the cells to attach and grow. Media was then aspirated from the cells and replaced with 15 uL 2:1 Hanks Balanced Salt Solution (HBSS)/10 mM Hepes. cAMP XS+ Ab reagent. Five microliters (5 uL) of previously generated compound sample stocks at 4× final concentration in assay buffer containing 4×EC80 forskolin were then added to the cells and allowed to incubate at 37° C. for 30 minutes.
After incubation the assay signal was generated using a technology termed enzyme fragment complementation (EFC). In EFC the enzyme B-galactosidase is split into two complementary portions (EA and ED). The fragment ED is fused to cAMP and in the assay format competes with endogenous cAMP for binding to a cAMP specific antibody. Activated B-Gal is formed when exogenous EA fragment binds to free ED-cAMP (not bound to cAMP specific antibody). Activated enzyme levels are detected through conversion of B-gal chemiluminescent substrate which generates a detectable luminescence signal and read on standard microtiter plate.
The methodology for detection of cAMP using EFC requires incubation with 20 uL of cAMP XS+ ED/CL lysis cocktail for one hour followed by incubation with 20 uL cAMP XS+ EA reagent for three hours at room temperature. Microplates were read following signal generation with a PerkinElmer Envision instrument utilizing chemiluminescent signal detection.
Compound activity was analyzed using CBIS data analysis suite (ChemInnovation, CA).
Percentage activity was calculated using the following formula: % Activity=[…]×(1−(mean RLU of test sample−mean RLU of Max control)/(mean RLU of vehicle control−mean RLU of Max control))
The biological activity of the exemplified compounds of this invention determined by the assay described above is shown in Table 1. The APJ cAMP EC50 potency ranges are as follows: A: EC50<1 nM; B: 1≤EC50<100 nM; and C: 100≤EC50<10,000 nM.

Q: For `COc1cccc(-c2nnc(C(=O)NS(=O)(=O)[C@@H](C)c3ccccc3)n2-c2c(OC)cccc2OC)n1` (single isomer, unassigned) [Example 32], which EC50 is on record?
A: Its EC50 is 1 to 100 nM.

Q: `COc1cccc(-c2nnc(C(=O)NS(=O)(=O)[C@H](C)c3ccccc3)n2-c2c(OC)cccc2OC)n1` (single isomer, unassigned) [Example 33] was tested. Which EC50 did it give?
A: Its EC50 is 1 to 100 nM.

Q: For `CCOc1cccc(-c2nnc(C(=O)NS(=O)(=O)[C@@H](C)c3ccccc3)n2-c2c(OC)cccc2OC)n1` (single isomer, unassigned) [Example 39], which EC50 is on record?
A: The EC50 was < 1 nM.

Q: For `CCOc1cccc(-c2nnc(C(=O)NS(=O)(=O)[C@H](C)c3ccccc3)n2-c2c(OC)cccc2OC)n1` (single isomer, unassigned) [Example 40], which EC50 is on record?
A: The EC50 was < 1 nM.

Q: With `CCOc1cccc(-c2nnc(C(=O)NS(=O)(=O)C[C@@H](C)c3ccccc3)n2-c2c(OC)cccc2OC)n1` (single isomer, unassigned) [Example 45] as the compound, how does the EC50 read?
A: Its EC50 is < 1 nM.

Q: How did the EC50 turn out when `CCOc1cccc(-c2nnc(C(=O)NS(=O)(=O)C[C@H](C)c3ccccc3)n2-c2c(OC)cccc2OC)n1` (single isomer, unassigned) [Example 46] was run?
A: Its EC50 is < 1 nM.

Q: For `CCOc1cccc(-c2nnc(C(=O)NS(=O)(=O)[C@H]3CCc4ccccc4C3)n2-c2c(OC)cccc2OC)n1` (single isomer, unassigned) [Example 47], which EC50 is on record?
A: The EC50 was < 1 nM.

Q: `CCOc1cccc(-c2nnc(C(=O)NS(=O)(=O)[C@@H]3CCc4ccccc4C3)n2-c2c(OC)cccc2OC)n1` (single isomer, unassigned) [Example 48] was tested. Which EC50 did it give?
A: Its EC50 is < 1 nM.

Q: How did the EC50 turn out when `CCOc1cccc(-c2nnc(C(=O)NS(=O)(=O)c3ccccc3)n2-c2c(OC)cccc2OC)n1` [Example 1, 4-(2,6-dimethoxyphenyl)-5-(6-ethoxypyridin-2-yl)-N-(phenylsulfonyl)-4H-1,2,4-triazole-3-carboxamide] was run?
A: The EC50 was < 1 nM.

Q: `CCOc1cccc(-c2nnc(C(=O)NS(=O)(=O)Cc3ccccc3)n2-c2c(OC)cccc2OC)n1` [Example 2, N-(benzylsulfonyl)-4-(2,6-dimethoxyphenyl)-5-(6-ethoxypyridin-2-yl)-4H-1,2,4-triazole-3-carboxamide] was tested. Which EC50 did it give?
A: Its EC50 is < 1 nM.

Q: With `CCOc1cccc(-c2nnc(C(=O)NS(=O)(=O)CCc3ccccc3)n2-c2c(OC)cccc2OC)n1` [Example 3, 4-(2,6-dimethoxyphenyl)-5-(6-ethoxypyridin-2-yl)-N-(phenethylsulfonyl)-4H-1,2,4-triazole-3-carboxamide] as the compound, how does the EC50 read?
A: Its EC50 is < 1 nM.

Q: How did the EC50 turn out when `COc1cccc(OC)c1-n1c(C(=O)NS(=O)(=O)Cc2ccccc2)nnc1-c1ccn(C)n1` [Example 4, N-(benzylsulfonyl)-4-(2,6-dimethoxyphenyl)-5-(1-methyl-1H-pyrazol-3-yl)-4H-1,2,4-triazole-3-carboxamide] was run?
A: The EC50 was 1 to 100 nM.

Q: `CCn1ccc(-c2nnc(C(=O)NS(=O)(=O)Cc3ccccc3)n2-c2c(OC)cccc2OC)n1` [Example 5, N-(benzylsulfonyl)-4-(2,6-dimethoxyphenyl)-5-(1-ethyl-1H-pyrazol-3-yl)-4H-1,2,4-triazole-3-carboxamide] was tested. Which EC50 did it give?
A: Its EC50 is 1 to 100 nM.

Q: Which EC50 does the source give for `COc1nc(-c2nnc(C(=O)NS(=O)(=O)Cc3ccccc3)n2-c2c(OC)cccc2OC)cs1` [Example 6, N-(benzylsulfonyl)-4-(2,6-dimethoxyphenyl)-5-(2-methoxythiazol-4-yl)-4H-1,2,4-triazole-3-carboxamide] here?
A: The EC50 was 1 to 100 nM.

Q: With `CCOCc1nnc(C(=O)NS(=O)(=O)Cc2ccccc2)n1-c1c(OC)cccc1OC` [Example 7, N-(benzylsulfonyl)-4-(2,6-dimethoxyphenyl)-5-(ethoxymethyl)-4H-1,2,4-triazole-3-carboxamide] as the compound, how does the EC50 read?
A: Its EC50 is 100 to 10000 nM.

Q: For `CCOc1cccc(-c2nnc(C(=O)N(C)S(=O)(=O)Cc3ccccc3)n2-c2c(OC)cccc2OC)n1` [Example 8, N-(benzylsulfonyl)-4-(2,6-dimethoxyphenyl)-5-(6-ethoxypyridin-2-yl)-N-methyl-4H-1,2,4-triazole-3-carboxamide], which EC50 is on record?
A: Its EC50 is 1 to 100 nM.

Q: With `CCOc1cccc(-c2nnc(C(=O)NS(C)(=O)=O)n2-c2c(OC)cccc2OC)n1` [Example 9, 4-(2,6-Dimethoxyphenyl)-5-(6-ethoxypyridin-2-yl)-N-(methylsulfonyl)-4H-1,2,4-triazole-3-carboxamide] as the compound, how does the EC50 read?
A: Its EC50 is 1 to 100 nM.

Q: How did the EC50 turn out when `COc1ccn(-c2nnc(C(=O)NS(=O)(=O)Cc3ccccc3)n2-c2c(OC)cccc2OC)n1` [Example 10, N-(enzylsulfonyl)-4-(2,6-dimethoxyphenyl)-5-(3-methoxy-1H-pyrazol-1-yl)-4H-1,2,4-triazole-3-carboxamide] was run?
A: Its EC50 is 100 to 10000 nM.

Q: `COc1cccc(OC)c1-n1c(C(=O)NS(=O)(=O)Cc2ccccc2)nnc1-c1cc(C2CC2)no1` [Example 11, N-(benzylsulfonyl)-5-(3-cyclopropylisoxazol-5-yl)-4-(2,6-dimethoxyphenyl)-4H-1,2,4-triazole-3-carboxamide] was tested. Which EC50 did it give?
A: The EC50 was 100 to 10000 nM.

Q: How did the EC50 turn out when `COc1cccc(OC)c1-n1c(C(=O)NS(=O)(=O)Cc2ccccc2)nnc1-c1ncc(C)c(OC)n1` [Example 12, N-(benzylsulfonyl)-4-(2,6-dimethoxyphenyl)-5-(4-methoxy-5-methylpyrimidin-2-yl)-4H-1,2,4-triazole-3-carboxamide] was run?
A: Its EC50 is 100 to 10000 nM.

Q: With `COc1cccc(-c2nnc(C(=O)NS(=O)(=O)Cc3ccccc3)n2-c2c(OC)cccc2OC)n1` [Example 13, N-(benzylsulfonyl)-4-(2,6-dimethoxyphenyl)-5-(6-methoxypyridin-2-yl)-4H-1,2,4-triazole-3-carboxamide] as the compound, how does the EC50 read?
A: The EC50 was 1 to 100 nM.

Q: With `COc1cccc(OC)c1-n1c(C(=O)NS(=O)(=O)Cc2ccccc2)nnc1-c1cccc(C)n1` [Example 14, N-(benzylsulfonyl)-4-(2,6-dimethoxyphenyl)-5-(6-methylpyridin-2-yl)-4H-1,2,4-triazole-3-carboxamide] as the compound, how does the EC50 read?
A: The EC50 was 1 to 100 nM.

Q: With `COc1cccc(OC)c1-n1c(C(=O)NS(=O)(=O)Cc2ccccc2)nnc1-c1ccc(C)cn1` [Example 15, N-(benzylsulfonyl)-4-(2,6-dimethoxyphenyl)-5-(5-methylpyridin-2-yl)-4H-1,2,4-triazole-3-carboxamide] as the compound, how does the EC50 read?
A: The EC50 was 1 to 100 nM.

Q: For `COc1cccc(OC)c1-n1c(C(=O)NS(=O)(=O)Cc2ccccc2)nnc1-c1ccc(C)o1` [Example 16, N-(benzylsulfonyl)-4-(2,6-dimethoxyphenyl)-5-(5-methylfuran-2-yl)-4H-1,2,4-triazole-3-carboxamide], which EC50 is on record?
A: Its EC50 is 1 to 100 nM.

Q: `COc1cccc(OC)c1-n1c(C(=O)NS(=O)(=O)Cc2ncccn2)nnc1-c1ccc(C)o1` [Example 17, 4-(2,6-Dimethoxyphenyl)-5-(5-methylfuran-2-yl)-N-((pyrimidin-2-ylmethyl)sulfonyl)-4H-1,2,4-triazole-3-carboxamide] was tested. Which EC50 did it give?
A: The EC50 was < 1 nM.

Q: `COc1cccc(OC)c1-n1c(C(=O)NS(=O)(=O)Cc2ccccc2)nnc1-c1cccc(OC2CCC2)n1` [Example 18, N-(benzylsulfonyl)-5-(6-cyclobutoxypyridin-2-yl)-4-(2,6-dimethoxyphenyl)-4H-1,2,4-triazole-3-carboxamide] was tested. Which EC50 did it give?
A: Its EC50 is 1 to 100 nM.

Q: With `COc1cccc(OC)c1-n1c(C(=O)NS(=O)(=O)Cc2ccccc2)nnc1-c1cccc(OC2CC2)n1` [Example 19, N-(benzylsulfonyl)-5-(6-cyclopropoxypyridin-2-yl)-4-(2,6-dimethoxyphenyl)-4H-1,2,4-triazole-3-carboxamide] as the compound, how does the EC50 read?
A: Its EC50 is < 1 nM.

Q: With `COc1cccc(OC)c1-n1c(C(=O)NS(=O)(=O)Cc2ncccn2)nnc1-c1cccc(OC2CC2)n1` [Example 20, 5-(6-Cyclopropoxypyridin-2-yl)-4-(2,6-dimethoxyphenyl)-N-((pyrimidin-2-ylmethyl)sulfonyl)-4H-1,2,4-triazole-3-carboxamide] as the compound, how does the EC50 read?
A: The EC50 was < 1 nM.

Q: Which EC50 does the source give for `COc1cccc(OC)c1-n1c(C(=O)NS(=O)(=O)Cc2ccccc2)nnc1-c1cccc(OC(F)F)n1` [Example 21, N-(benzylsulfonyl)-5-(6-(difluoromethoxy)pyridin-2-yl)-4-(2,6-dimethoxyphenyl)-4H-1,2,4-triazole-3-carboxamide] here?
A: Its EC50 is 1 to 100 nM.
